According to patent US8552163B2, “Liver-targeting agents and their synthesis” (Johns Hopkins University, priority 2009, dated 2013):

What was measured:
ASGPR = biological target: T1, ASGPR (Mus musculus, UniProt P24721+P34927); test: Competitive binding assay with Eu-ASOR on murine hepatocyte (time-resolved fluorometry); conditions: for binding to ASGPR compared with that of YEE or YDD: relative to YEE or YDD, from the IC50 data of Table 1
T1 construct: host or cells: murine hepatocytes (purchased, plated in 24-well plates)
T1 sequence (P34927 1-284): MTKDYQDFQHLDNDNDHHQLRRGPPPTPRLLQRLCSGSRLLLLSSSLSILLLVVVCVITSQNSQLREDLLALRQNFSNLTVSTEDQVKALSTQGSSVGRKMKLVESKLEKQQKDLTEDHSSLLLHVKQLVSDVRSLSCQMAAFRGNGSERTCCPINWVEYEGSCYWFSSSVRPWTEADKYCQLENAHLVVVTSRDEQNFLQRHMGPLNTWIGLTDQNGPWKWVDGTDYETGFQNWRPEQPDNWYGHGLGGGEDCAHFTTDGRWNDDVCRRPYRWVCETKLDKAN
T1 sequence (P24721 1-301): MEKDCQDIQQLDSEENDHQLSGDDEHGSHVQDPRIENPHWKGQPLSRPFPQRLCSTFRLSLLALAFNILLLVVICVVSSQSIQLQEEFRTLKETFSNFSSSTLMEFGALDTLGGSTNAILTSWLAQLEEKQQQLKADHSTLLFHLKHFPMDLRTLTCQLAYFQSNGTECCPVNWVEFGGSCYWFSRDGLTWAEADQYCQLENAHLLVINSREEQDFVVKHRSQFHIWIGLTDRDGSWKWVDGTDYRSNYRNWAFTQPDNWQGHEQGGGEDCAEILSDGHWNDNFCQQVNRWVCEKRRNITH
Method: With Eu-asialo-orosomucoid (Eu-ASOR) as a reference material, the binding affinity of the multivalent glyco-ligands (DCM-Lys(ah-GalNAc)3, DCM-Lys(GahGalNAc)3, DCM-Lys(ahLac)3, AHA-Asp[DCM-Lys(ahLac)3]2) and murine hepatocyte can be determined by competitive assay to obtain IC50 (concentration of 50% inhibition), and the lower the IC50 is, the higher the binding affinity. The murine hepatocyte (Lonza Biotechnology Company, Walkersville, Md.) is plated in a 24-well plate in advance, and the reaction occurs in each well, into which (i) Eu-ASOR 10 nM (ii) hepatocyte basic medium with 5 mM calcium chloride, and (iii) five different concentrations of multivalent ligands of 1 μM-0.8 nM are added. After culturing with shaking for 1 hr in the cold, the unbound ligands are removed by washing with the hepatocyte basic medium containing calcium chloride. Time-resolved fluorometry (TRF) is performed, using an enhancement solution (15 μM β-naphthoyl trifluoroacetone, 50 μM tri-n-octyl-phosphine oxide, 0.1% triton X-100 in 0.1 M acetic acid, titrated with potassium hydrogen phthalate to pH 3.2). The enhancement solution reacts with Eu^3+ to form an Eu chelate, which can emit at 615 nm when excited at 340 nm. With the logarithm of the concentration of saccharide chain peptide as X axis, the emitted fluorescence value as Y axis, the fluorescence value without adding glycopeptide being set as 100%, the IC50 values of each ligand can be calculated accordingly.

[1] = as first reported by Lee (1983); cited from earlier work

**Q.** Which “binding to ASGPR compared with that of YEE or YDD” value (ASGPR) does the source give for NCCCCCC(=O)NC(CC(=O)NCCCCC(C(=O)NCCCCCCOC1OC(CO)C(OC2OC(CO)C(O)C(O)C2O)C(O)C1O)N(CC(=O)NCCCCCCOC1OC(CO)C(OC2OC(CO)C(O)C(O)C2O)C(O)C1O)CC(=O)NCCCCCCOC1OC(CO)C(OC2OC(CO)C(O)C(O)C2O)C(O)C1O)C(=O)NCCCCC(C(=O)NCCCCCCOC1OC(CO)C(OC2OC(CO)C(O)C(O)C2O)C(O)C1O)N(CC(=O)NCCCCCCOC1OC(CO)C(OC2OC(CO)C(O)C(O)C2O)C(O)C1O)CC(=O)NCCCCCCOC1OC(CO)C(OC2OC(CO)C(O)C(O)C2O)C(O)C1O (stereo not shown) [AHA-Asp[DCM-Lys(ahLac)3]2] here?
**A.** the same binding strength as that of YEE or YDD

**Q.** Which IC50 (ASGPR; competition with 10 nM Eu-ASOR, murine hepatocyte, 5 mM calcium chloride, 1 hr in the cold, read-out: IC50 (concentration of 50% inhibition), binding strength of saccharide chains and murine hepatocyte) does the source give for CC(=O)N[C@H]1[C@H](OCCCCCCNC(=O)CNC(=O)CN(CC(=O)NCC(=O)NCCCCCCO[C@@H]2O[C@H](CO)[C@H](O)[C@H](O)[C@H]2NC(C)=O)[C@@H](CCCCN)C(=O)NCC(=O)NCCCCCCO[C@@H]2O[C@H](CO)[C@H](O)[C@H](O)[C@H]2NC(C)=O)O[C@H](CO)[C@H](O)[C@@H]1O [DCM-Lys(GahGalNAc)3] here?
**A.** 1 nM

**Q.** What about the “binding to ASGPR compared with that of YEE or YDD” value (ASGPR) of the same compound?
**A.** 10 times

**Q.** Which solubility [1] does the source give for CC(=O)N[C@H]1[C@H](OCCCCCCNC(=O)CC[C@H](NC(=O)CC[C@H](NC(=O)[C@@H](N)Cc2ccc(O)cc2)C(=O)NCCCCCCO[C@@H]2O[C@H](CO)[C@H](O)[C@H](O)[C@H]2NC(C)=O)C(=O)NCCCCCCO[C@@H]2O[C@H](CO)[C@H](O)[C@H](O)[C@H]2NC(C)=O)O[C@H](CO)[C@H](O)[C@@H]1O [YEE(ahGalNAc)3] here?
**A.** poor solubility
